# Source: ChEMBL document CHEMBL3352376, “Amine substitution of quinazolinones leads to selective nanomolar AChE inhibitors with 'inverted' binding mode” (Bioorg Med Chem, 2014)
# “And” between values parts separate entries of the source, which are not always exact repeats. Equal entries are not always repeated. The source made the active and inactive calls. No cut-off for these calls is given here.
# Tests used:
# Acetylcholinesterase [1] = target: T1, Acetylcholinesterase (Homo sapiens, UniProt P22303)
# Cholinesterase = Cholinesterase (Equus caballus, UniProt P81908)
# Acetylcholinesterase [2] = target: Acetylcholinesterase (Electrophorus electricus, UniProt O42275)
# [3] = target: Cholinesterase (Equus caballus) (UniProt P81908); assay: Inhibition of equine serum BChE at 50 uM
# Acetylcholinesterase [4] = target: T1, Acetylcholinesterase; assay: Inhibition of human AChE at 100 uM
# [5] = target: Acetylcholinesterase (Electrophorus electricus) (UniProt O42275); assay: Inhibition of electric eel AChE at 50 uM
# Histamine H3 receptor = Histamine H3 receptor (Homo sapiens, UniProt Q9Y5N1); assay: Inhibition of human H3 receptor
# Chain of Histamine H3 receptor (Q9Y5N1 whole entry): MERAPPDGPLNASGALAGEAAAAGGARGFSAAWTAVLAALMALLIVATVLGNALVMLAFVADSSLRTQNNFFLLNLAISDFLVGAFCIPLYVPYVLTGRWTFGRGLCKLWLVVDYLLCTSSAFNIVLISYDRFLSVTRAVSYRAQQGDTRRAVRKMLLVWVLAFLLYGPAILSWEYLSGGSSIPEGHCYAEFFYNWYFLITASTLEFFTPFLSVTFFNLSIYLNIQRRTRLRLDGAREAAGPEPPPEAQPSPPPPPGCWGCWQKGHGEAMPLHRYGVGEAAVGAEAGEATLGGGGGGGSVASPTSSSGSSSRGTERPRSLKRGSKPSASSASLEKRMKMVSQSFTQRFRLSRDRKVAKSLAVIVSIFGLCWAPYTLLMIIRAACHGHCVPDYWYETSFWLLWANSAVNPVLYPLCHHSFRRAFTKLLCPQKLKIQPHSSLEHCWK
# Chain of Acetylcholinesterase (Electrophorus electricus, UniProt O42275) (O42275 whole entry): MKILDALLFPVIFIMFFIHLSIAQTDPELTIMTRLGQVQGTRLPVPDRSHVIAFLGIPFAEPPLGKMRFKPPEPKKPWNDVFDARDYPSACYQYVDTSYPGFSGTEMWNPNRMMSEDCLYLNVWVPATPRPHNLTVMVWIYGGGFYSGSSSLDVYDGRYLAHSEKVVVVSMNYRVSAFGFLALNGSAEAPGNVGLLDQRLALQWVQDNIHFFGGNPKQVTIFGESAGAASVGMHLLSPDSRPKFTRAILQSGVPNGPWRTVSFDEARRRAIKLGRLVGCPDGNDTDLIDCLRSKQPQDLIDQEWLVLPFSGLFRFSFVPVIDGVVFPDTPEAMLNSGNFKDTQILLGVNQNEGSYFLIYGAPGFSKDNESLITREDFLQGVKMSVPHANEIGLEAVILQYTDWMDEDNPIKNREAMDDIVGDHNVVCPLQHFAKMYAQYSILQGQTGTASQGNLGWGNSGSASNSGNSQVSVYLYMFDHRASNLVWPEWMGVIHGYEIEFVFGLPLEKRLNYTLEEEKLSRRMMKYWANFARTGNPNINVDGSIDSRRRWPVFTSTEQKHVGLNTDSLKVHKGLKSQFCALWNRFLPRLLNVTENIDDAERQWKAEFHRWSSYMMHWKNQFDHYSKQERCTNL
# Chain of Cholinesterase (P81908 whole entry): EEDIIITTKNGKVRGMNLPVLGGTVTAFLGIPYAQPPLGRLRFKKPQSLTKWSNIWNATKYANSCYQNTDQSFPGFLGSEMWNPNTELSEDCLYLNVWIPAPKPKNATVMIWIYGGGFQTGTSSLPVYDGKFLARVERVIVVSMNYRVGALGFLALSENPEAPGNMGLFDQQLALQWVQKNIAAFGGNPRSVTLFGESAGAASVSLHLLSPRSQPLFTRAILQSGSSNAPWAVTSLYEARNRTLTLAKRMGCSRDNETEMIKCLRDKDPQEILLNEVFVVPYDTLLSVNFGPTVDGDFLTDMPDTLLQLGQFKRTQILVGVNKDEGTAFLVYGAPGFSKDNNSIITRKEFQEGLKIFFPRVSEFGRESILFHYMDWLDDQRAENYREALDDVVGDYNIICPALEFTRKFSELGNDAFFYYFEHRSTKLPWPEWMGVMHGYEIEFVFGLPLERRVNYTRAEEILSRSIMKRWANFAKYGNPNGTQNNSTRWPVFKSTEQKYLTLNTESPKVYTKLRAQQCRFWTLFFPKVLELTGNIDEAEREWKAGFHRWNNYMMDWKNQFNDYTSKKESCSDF
# T1 sequence (P22303 whole entry): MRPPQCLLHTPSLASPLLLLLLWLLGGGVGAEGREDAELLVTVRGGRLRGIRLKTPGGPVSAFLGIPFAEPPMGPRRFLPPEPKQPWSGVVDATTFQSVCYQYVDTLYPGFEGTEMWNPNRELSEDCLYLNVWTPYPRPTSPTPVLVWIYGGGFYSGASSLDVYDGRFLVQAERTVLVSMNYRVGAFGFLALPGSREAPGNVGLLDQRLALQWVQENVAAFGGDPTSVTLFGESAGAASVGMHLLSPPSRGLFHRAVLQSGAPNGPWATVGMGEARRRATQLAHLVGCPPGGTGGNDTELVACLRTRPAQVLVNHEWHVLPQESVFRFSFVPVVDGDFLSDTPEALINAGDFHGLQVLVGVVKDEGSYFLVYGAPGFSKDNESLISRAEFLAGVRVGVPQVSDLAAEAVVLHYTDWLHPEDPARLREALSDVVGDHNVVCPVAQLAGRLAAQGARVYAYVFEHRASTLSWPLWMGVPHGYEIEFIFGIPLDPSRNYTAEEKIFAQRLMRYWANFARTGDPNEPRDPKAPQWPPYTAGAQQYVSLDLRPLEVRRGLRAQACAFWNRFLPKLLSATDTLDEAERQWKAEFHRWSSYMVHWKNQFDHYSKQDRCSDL
# Chain of Acetylcholinesterase (Electrophorus electricus) (O42275 24-633 limits assumed): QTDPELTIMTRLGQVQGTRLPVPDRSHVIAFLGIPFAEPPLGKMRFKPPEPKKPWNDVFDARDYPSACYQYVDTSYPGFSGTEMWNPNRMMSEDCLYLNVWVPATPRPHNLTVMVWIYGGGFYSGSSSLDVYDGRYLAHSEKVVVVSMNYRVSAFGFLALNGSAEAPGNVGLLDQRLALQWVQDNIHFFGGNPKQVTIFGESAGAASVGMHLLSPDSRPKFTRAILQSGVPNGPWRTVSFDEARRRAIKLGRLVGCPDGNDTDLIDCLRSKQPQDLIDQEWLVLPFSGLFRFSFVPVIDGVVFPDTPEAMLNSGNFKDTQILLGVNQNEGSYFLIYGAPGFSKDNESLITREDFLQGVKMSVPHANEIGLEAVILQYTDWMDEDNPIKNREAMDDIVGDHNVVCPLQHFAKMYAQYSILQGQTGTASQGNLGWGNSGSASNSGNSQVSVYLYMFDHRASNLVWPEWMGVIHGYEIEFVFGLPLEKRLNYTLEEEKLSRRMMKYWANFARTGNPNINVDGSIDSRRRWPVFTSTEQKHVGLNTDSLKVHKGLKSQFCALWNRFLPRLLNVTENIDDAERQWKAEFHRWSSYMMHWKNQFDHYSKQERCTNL
# Chain of Cholinesterase (Equus caballus) (P81908 whole entry): as the sequence (P81908 whole entry) above
SMILES,IC50 (Acetylcholinesterase [1]),IC50 (Cholinesterase),IC50 (Acetylcholinesterase [2]),other results
O=c1c2cc(OCCCN3CCCCC3)ccc2nc2n1CCCCC2,0.82 µM,12.7 µM,0.043 µM,–
O=c1c2cc(OCCCN3CCCCCC3)ccc2nc2n1CCCC2,–,1.77 µM and 2.67 µM,0.0585 µM,–
O=c1c2cc(OCCCn3ccnc3)ccc2nc2n1CCc1ccccc1-2,–,8.68 µM,2.44 µM,–
O=c1c2cc(OCCCN3CCCCC3)ccc2nc2n1CCCC2,0.225 µM,6.55 µM,0.0333 µM,–
CCN(CC)CCCOc1ccc2nc3n(c(=O)c2c1)CCCCC3,12.1 µM,10.8 µM,0.0506 µM,–
O=c1c2cc(OCCCN3CCc4ccccc4C3)ccc2nc2n1CCCCC2,–,3.03 µM,0.653 µM,–
O=c1c2cc(OCCCN3CCCCC3)ccc2nc2n1Cc1ccccc1-2,0.143 µM and 0.142 µM,–,0.0069 µM,–
O=c1c2cc(OCCCN3CCCCCC3)ccc2nc2n1CCc1ccccc1-2,–,0.584 µM,0.013 µM,–
O=c1c2cc(OCCCN3CCCC3)ccc2nc2n1CCC2,–,10.6 µM,0.05 µM,–
O=c1c2cc(OCCCN3CCCCCC3)ccc2nc2n1CCC2,–,5.22 µM,0.0502 µM,–
O=c1c2cc(OCCCN3CCc4ccccc4C3)ccc2nc2n1CCCc1ccccc1-2,–,1.84 µM,1.19 µM,–
O=c1c2cc(OCCCN3CCCCC3)ccc2nc2n1CCc1ccccc1-2,0.217 µM and 0.216 µM,0.955 µM,0.0055 µM,–
O=c1c2cc(OCCCN3CCCC3)ccc2nc2n1CCCC2,–,16.1 µM,0.21 µM,–
O=c1c2cc(OCCCN3CCc4ccccc4C3)ccc2nc2n1CCCC2,–,5.49 µM,0.723 µM,–
O=c1c2cc(OCCCn3ccnc3)ccc2nc2n1CCCc1ccccc1-2,56.5 µM,52 µM,10.3 µM,–
O=c1c2cc(OCCCN3CCc4ccccc4C3)ccc2nc2n1Cc1ccccc1-2,–,1.73 µM,0.227 µM,–
O=c1c2cc(OCCCN3CCCC3)ccc2nc2n1CCCc1ccccc1-2,–,3.61 µM,0.529 µM,–
CCN(CC)CCCOc1ccc2nc3n(c(=O)c2c1)Cc1ccccc1-3,0.2 µM,1.88 µM,0.011 µM,–
O=c1c2cc(OCCCn3ccnc3)ccc2nc2n1Cc1ccccc1-2,–,9.11 µM,0.454 µM,–
O=c1c2cc(OCCCn3ccnc3)ccc2nc2n1CCC2,–,14.6 µM,1.9 µM,–

SMILES,IC50 (Acetylcholinesterase [1]),IC50 (Cholinesterase),IC50 (Acetylcholinesterase [2]),other results
CCN(CC)CCCOc1ccc2nc3n(c(=O)c2c1)CCC3,1.2 µM,0.829 µM,0.101 µM,–
O=c1c2cc(OCCCn3ccnc3)ccc2nc2n1CCCCC2,–,59.8 µM,3.95 µM,–
O=c1c2cc(OCCCCCCCCCN3CCCCC3)ccc2nc2n1CCC2,–,8.6 µM,0.39 µM,–
CCN(CC)CCCOc1ccc2nc3n(c(=O)c2c1)CCCc1ccccc1-3,4.2 µM,5.1 µM,0.0721 µM,–
O=c1c2cc(OCCCN3CCCCC3)ccc2nc2n1CCC2,1.1 µM,122 µM,0.0692 µM,–
O=c1c2cc(OCCCN3CCCC3)ccc2nc2n1CCc1ccccc1-2,–,–,0.0911 µM,–
O=c1c2cc(OCCCN3CCCCCC3)ccc2nc2n1CCCc1ccccc1-2,–,0.865 µM,0.0534 µM,–
O=c1c2cc(OCCCN3CCCC3)ccc2nc2n1Cc1ccccc1-2,–,2.4 µM,0.0162 µM,–
O=c1c2cc(OCCCN3CCc4ccccc4C3)ccc2nc2n1CCC2,–,0.776 µM,0.868 µM,–
O=c1c2cc(OCCCC3CCCCC3)ccc2nc2n1Cc1ccccc1-2,–,–,–,inhibition [3]: inactive; inhibition (Acetylcholinesterase [4]): 35%; inhibition [5]: 34%
c1cc2c(cc1OCCCN1CCCCC1)CN1CCCC1=N2,0.0339 µM,–,0.0665 µM,Ki (Histamine H3 receptor): 0.0762 µM
O=c1c2cc(OCCCN3CCCC3)ccc2nc2n1CCCCC2,–,12.2 µM,0.295 µM,–
O=c1c2cc(OCCCN3CCc4ccccc4C3)ccc2nc2n1CCc1ccccc1-2,–,1.83 µM,0.625 µM,–
O=c1c2cc(OCCCN3CCCCC3)ccc2nc2n1CCCc1ccccc1-2,0.535 µM,2.67 µM,0.0571 µM,–
CCN(CC)CCCOc1ccc2nc3n(c(=O)c2c1)CCc1ccccc1-3,0.669 µM,2.16 µM,0.0475 µM,–
CCN(CC)CCCOc1ccc2nc3n(c(=O)c2c1)CCCC3,1.5 µM,9.14 µM,0.043 µM,–
O=c1c2cc(OCCCN3CCCCCC3)ccc2nc2n1Cc1ccccc1-2,–,1.87 µM,0.005 µM,–
O=c1c2cc(OCCCn3ccnc3)ccc2nc2n1CCCC2,–,50 µM and 59 µM,4.24 µM,–
O=c1c2cc(OCCCN3CCCCCC3)ccc2nc2n1CCCCC2,–,1.8 µM,0.0392 µM,–
